Laboratory results: patent US20220274980A1, “PHARMACOLOGICAL INHIBITORS OF THE ENL YEATS DOMAIN” (priority 2019, published 2022)

Target: T1, BRD4 bromodomain 1 (BD1) (Homo sapiens, UniProt O60885)
T1 construct: Selectivity against BRD4 bromodomain 1 (BD1), measured by HTRF; His; purchased Cayman 11720
Experiment: BRD4 (BD1)-H4 tetra-acetylated HTRF histone-binding assay
Summary of the method: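 Recombinant BRD4 BD1 (10 nM) was combined with 13.3 nM biotinylated tetra-acetylated H4 peptide, Eu-anti-His antibody and APC-streptavidin in HEPES buffer, pH 7. Compound was pin-transferred and plates incubated ≥2 h before HTRF reading (665/620 nm ratio). Percent inhibition was normalised to vehicle (maximum) and no-peptide (minimum) wells.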

O=C(NC1CCC1)c1ccc2nc(-c3cccc(NS(=O)(=O)NCCN4CCCCC4)c3)cn2c1 [Compound 93]
IC50 (Table 1): > 50 µM | IC50 (Table 2): > 50 µM
